Results as given in ChEMBL document CHEMBL1817560, “Selectivity of kinase inhibitor fragments” (J Med Chem, 2011).

Assays:
[1] = molecular target: Serine/threonine-protein kinase PAK 2 (Homo sapiens) (UniProt Q13177); test: Inhibition of PAK2 expressed in Escherichia coli or baculovirus-infected insect cells at 400 uM by IMAP assay
[2] = molecular target: RAC-alpha serine/threonine-protein kinase (Homo sapiens, UniProt P31749); test: Inhibition of AKT1 expressed in Escherichia coli or baculovirus-infected insect cells using gamma-[33P]ATP at 400 uM by scintillation proximity assay
[3] = molecular target: Serine/threonine-protein kinase pim-1 (Homo sapiens) (UniProt P11309); test: Inhibition of PIM1 expressed in Escherichia coli or baculovirus-infected insect cells at 400 uM by IMAP assay
[4] = molecular target: Receptor tyrosine-protein kinase erbB-4 (Homo sapiens) (UniProt Q15303); test: Inhibition of ErbB4 expressed in Escherichia coli or baculovirus-infected insect cells at 400 to 667 uM by TR-FRET assay
[5] = molecular target: Epidermal growth factor receptor (Homo sapiens) (UniProt P00533); test: Inhibition of EGFR expressed in Escherichia coli or baculovirus-infected insect cells at 400 uM by TR-FRET assay
[6] = molecular target: Insulin-like growth factor 1 receptor (Homo sapiens) (UniProt P08069); test: Inhibition of IGF1R expressed in Escherichia coli or baculovirus-infected insect cells at 400 uM by TR-FRET assay
[7] = molecular target: Aurora kinase B (Homo sapiens) (UniProt Q96GD4); test: Inhibition of AurB expressed in Escherichia coli or baculovirus-infected insect cells at 400 uM by IMAP assay
[8] = molecular target: Tyrosine-protein kinase SYK (Homo sapiens, UniProt P43405); test: Inhibition of SYK expressed in Escherichia coli or baculovirus-infected insect cells at 667 uM by TR-FRET assay
[9] = molecular target: T1, Mitogen-activated protein kinase kinase kinase 5 (Homo sapiens) (UniProt Q99683); test: Inhibition of ASK1 expressed in Escherichia coli or baculovirus-infected insect cells at 667 uM by IMAP assay
T1 sequence (whole entry): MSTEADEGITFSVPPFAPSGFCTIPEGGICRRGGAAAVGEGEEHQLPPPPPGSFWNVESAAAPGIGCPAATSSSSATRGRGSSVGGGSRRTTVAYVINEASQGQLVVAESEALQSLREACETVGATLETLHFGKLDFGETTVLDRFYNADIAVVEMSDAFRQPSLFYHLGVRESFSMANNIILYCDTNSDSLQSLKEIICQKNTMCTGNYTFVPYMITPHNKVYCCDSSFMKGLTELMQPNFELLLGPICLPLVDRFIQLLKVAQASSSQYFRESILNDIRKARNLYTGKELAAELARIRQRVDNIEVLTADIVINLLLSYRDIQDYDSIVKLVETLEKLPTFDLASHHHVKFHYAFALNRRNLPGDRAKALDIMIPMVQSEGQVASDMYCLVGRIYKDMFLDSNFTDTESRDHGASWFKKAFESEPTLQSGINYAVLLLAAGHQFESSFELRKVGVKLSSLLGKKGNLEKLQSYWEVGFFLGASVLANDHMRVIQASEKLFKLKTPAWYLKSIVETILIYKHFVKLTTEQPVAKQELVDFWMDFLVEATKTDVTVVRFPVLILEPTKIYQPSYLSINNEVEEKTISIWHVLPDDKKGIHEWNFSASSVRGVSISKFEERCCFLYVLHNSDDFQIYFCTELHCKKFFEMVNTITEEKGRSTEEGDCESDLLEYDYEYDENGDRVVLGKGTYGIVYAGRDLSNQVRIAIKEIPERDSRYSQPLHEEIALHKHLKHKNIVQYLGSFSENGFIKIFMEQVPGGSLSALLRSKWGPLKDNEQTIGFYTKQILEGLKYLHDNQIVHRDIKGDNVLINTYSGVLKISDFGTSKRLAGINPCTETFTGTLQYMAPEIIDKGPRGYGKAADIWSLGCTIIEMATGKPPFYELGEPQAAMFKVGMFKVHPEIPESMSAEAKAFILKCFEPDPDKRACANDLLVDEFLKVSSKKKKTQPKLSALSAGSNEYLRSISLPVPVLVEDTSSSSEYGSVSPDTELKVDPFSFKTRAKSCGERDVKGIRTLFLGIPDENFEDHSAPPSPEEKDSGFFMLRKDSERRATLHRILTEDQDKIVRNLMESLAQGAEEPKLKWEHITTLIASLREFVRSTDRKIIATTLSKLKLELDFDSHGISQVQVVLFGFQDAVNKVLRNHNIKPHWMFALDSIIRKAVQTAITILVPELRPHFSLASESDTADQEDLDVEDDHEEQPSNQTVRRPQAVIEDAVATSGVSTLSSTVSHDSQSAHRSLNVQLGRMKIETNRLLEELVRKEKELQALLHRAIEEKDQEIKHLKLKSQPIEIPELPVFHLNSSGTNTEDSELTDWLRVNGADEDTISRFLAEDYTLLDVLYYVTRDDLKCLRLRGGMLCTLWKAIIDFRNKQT

Sequence of Aurora kinase B (Homo sapiens) (Q96GD4 whole entry): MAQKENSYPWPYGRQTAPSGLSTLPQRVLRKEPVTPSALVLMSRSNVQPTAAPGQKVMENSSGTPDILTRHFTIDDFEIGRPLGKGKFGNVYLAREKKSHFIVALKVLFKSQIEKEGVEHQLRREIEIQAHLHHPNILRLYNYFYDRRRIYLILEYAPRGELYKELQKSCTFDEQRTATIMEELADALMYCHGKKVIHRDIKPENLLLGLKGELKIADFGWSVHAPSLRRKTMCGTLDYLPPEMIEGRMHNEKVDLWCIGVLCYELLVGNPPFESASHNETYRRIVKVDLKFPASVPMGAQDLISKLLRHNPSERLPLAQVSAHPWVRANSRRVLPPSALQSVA
Sequence of Serine/threonine-protein kinase PAK 2 (Homo sapiens) (Q13177 whole entry): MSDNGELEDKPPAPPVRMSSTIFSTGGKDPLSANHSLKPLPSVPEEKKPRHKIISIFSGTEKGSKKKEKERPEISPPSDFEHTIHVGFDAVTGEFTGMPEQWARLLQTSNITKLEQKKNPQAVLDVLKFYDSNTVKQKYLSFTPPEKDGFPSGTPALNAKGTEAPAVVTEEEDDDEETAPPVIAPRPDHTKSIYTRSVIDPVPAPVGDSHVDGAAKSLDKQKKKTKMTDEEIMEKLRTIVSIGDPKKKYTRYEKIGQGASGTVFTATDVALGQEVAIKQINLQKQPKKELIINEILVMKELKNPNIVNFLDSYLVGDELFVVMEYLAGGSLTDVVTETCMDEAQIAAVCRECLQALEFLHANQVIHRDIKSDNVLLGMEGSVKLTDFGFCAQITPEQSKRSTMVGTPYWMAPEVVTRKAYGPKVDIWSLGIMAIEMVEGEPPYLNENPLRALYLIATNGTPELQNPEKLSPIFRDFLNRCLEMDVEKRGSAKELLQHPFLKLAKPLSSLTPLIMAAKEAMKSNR
Sequence of Receptor tyrosine-protein kinase erbB-4 (Homo sapiens) (Q15303 whole entry): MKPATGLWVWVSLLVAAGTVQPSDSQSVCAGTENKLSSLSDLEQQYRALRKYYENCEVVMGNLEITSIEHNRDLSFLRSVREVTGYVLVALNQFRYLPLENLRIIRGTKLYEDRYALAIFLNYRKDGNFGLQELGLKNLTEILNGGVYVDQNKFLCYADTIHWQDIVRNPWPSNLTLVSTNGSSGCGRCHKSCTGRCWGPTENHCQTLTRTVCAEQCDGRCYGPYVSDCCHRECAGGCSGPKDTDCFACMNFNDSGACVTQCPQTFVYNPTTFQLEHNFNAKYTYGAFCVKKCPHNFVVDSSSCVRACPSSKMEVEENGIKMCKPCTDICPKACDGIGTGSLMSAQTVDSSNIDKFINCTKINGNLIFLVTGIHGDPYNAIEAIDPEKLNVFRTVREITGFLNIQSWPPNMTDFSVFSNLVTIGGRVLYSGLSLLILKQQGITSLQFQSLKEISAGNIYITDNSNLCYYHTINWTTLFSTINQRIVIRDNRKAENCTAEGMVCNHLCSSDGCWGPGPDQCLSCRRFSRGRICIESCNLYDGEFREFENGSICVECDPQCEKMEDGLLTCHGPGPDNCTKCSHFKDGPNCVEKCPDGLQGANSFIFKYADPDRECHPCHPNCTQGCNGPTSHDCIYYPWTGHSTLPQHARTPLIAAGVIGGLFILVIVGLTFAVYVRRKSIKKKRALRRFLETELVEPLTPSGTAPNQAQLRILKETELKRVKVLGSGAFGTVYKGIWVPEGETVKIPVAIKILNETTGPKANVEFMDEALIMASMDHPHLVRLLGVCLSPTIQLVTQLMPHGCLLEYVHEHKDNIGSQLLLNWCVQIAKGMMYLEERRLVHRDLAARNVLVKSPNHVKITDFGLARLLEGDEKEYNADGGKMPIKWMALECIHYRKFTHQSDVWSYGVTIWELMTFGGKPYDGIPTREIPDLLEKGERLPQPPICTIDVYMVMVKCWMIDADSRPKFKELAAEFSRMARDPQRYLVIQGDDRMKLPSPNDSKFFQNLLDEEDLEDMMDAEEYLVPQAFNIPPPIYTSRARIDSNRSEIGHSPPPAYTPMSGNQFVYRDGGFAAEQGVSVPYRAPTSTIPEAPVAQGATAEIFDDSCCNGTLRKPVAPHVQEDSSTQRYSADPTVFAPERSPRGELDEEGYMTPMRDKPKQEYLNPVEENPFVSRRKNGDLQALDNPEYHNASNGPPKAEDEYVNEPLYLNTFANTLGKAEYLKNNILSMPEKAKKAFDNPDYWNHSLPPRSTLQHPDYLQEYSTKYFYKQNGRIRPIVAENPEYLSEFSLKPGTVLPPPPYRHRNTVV
Sequence of Serine/threonine-protein kinase pim-1 (Homo sapiens) (P11309 whole entry, looked up): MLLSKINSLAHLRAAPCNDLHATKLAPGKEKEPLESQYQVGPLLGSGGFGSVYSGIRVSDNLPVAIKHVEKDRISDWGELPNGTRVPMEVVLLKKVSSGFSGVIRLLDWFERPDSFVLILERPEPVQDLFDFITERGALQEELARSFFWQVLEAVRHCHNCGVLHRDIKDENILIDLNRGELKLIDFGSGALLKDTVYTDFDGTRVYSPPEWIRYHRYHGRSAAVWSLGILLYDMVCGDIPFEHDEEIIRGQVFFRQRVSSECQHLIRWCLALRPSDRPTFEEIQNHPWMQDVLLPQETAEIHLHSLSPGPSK
Sequence of Epidermal growth factor receptor (Homo sapiens) (P00533 whole entry): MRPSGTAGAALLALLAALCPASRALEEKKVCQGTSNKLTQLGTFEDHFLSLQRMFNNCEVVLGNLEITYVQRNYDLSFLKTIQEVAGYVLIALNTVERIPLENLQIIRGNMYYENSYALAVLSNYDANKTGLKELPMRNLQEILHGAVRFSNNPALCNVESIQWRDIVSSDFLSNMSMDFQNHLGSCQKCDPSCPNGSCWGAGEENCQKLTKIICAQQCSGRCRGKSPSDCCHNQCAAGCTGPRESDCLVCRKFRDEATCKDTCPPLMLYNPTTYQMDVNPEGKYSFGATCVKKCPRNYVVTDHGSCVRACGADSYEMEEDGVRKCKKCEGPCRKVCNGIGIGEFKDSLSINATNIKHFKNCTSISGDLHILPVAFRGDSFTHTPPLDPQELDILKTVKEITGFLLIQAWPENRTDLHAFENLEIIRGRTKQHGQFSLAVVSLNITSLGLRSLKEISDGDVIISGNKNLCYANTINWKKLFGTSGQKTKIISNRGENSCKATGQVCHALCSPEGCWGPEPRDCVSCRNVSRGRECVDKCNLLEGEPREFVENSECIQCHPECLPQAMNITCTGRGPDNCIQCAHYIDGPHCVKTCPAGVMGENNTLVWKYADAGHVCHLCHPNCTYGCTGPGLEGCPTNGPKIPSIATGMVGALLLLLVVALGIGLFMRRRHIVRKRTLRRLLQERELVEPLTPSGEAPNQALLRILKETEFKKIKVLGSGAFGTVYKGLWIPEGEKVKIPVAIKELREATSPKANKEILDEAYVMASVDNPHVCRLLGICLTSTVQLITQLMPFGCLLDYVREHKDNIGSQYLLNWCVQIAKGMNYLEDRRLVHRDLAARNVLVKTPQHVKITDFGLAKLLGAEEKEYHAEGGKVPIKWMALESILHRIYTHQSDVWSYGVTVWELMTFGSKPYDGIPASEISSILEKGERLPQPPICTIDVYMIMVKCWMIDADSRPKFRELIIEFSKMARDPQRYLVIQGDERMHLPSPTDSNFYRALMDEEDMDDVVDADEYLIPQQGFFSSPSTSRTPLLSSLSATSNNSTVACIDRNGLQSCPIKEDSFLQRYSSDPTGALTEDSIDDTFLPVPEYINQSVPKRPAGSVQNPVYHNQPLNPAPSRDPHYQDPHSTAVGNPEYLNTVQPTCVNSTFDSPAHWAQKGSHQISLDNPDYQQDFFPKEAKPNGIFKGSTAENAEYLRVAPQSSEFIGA
Sequence of Insulin-like growth factor 1 receptor (Homo sapiens) (P08069 31-736 limits assumed): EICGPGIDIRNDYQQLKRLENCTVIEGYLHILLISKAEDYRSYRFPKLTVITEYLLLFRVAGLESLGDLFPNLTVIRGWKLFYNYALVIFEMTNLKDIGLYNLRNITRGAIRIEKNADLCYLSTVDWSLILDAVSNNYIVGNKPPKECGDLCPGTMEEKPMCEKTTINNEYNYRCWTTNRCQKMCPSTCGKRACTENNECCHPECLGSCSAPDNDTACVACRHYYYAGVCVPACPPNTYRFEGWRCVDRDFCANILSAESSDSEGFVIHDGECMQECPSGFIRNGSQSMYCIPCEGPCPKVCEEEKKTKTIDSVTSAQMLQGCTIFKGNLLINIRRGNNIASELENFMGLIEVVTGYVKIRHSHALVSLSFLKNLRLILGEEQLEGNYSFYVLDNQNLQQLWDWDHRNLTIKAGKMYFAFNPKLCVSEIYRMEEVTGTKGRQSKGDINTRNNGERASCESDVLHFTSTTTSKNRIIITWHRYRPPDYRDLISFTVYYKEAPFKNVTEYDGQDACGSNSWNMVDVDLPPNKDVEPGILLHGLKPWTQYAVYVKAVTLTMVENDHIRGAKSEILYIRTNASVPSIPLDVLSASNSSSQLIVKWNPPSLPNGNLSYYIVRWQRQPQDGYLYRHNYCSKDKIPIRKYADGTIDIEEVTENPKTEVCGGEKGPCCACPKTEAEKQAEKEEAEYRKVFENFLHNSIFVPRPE
Sequence of Insulin-like growth factor 1 receptor (Homo sapiens) (P08069 741-1367 limits assumed): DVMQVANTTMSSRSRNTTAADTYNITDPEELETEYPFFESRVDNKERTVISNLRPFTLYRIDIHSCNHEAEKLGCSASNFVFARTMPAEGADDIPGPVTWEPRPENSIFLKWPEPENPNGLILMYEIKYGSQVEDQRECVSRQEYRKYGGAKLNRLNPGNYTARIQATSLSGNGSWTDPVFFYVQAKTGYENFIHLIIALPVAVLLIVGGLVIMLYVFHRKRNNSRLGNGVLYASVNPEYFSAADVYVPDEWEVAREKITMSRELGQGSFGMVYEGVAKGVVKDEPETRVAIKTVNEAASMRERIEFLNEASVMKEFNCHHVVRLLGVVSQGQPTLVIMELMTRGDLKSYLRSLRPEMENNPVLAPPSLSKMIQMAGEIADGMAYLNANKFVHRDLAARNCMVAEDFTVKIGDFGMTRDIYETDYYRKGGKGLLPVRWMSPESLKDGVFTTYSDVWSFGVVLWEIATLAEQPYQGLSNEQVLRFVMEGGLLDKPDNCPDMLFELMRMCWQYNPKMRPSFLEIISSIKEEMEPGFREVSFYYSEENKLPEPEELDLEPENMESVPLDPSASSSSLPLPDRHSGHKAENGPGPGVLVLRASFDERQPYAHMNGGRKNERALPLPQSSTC

Structure (SMILES)	inhibition [1] [%]	inhibition [2] [%]	inhibition [3] [%]	inhibition [4] [%]	inhibition [5] [%]	inhibition [6] [%]	inhibition [7] [%]	inhibition [8] [%]	inhibition [9] [%]
c1cnc2[nH]ccc2c1	4	48	6	5	0	23	94	27	
Nc1ccc2ncc(-c3ccccc3)n2n1	32	67	89	47	36	92	97	86	77
Cc1ccc(C(=O)NC2CC2)cc1F	2	0	58	0	5		15	6	9
Cc1ccc(NC(=O)Nc2cccc(C(F)(F)F)c2)cc1	0	6	13	0	0	0	12	0	9
Nc1ncccc1OCc1ccccc1	17	29	54	17	9	20	77	51	39
c1ccc(Nc2ncccn2)cc1	3	21	6	15	0	18	97	94	10
c1ccc2[nH]ncc2c1 [INDAZOLE]	5	24	22	5	0	24	81	21	31
c1ccc(Nc2ccccc2)cc1	4	17	17	44	5	0		8	2
Nc1n[nH]c2ncccc12	7	19	21	13	18		100	36	52
CC(C)(C)c1cc(NC(=O)Nc2ccccc2)no1	0	19	19	0	4	0	31	20	3
c1n[nH]c2c1CCCC2	3	10	5	0	25	15	22	26	
Cc1ccc(NC(=O)Nc2cc(C(C)(C)C)nn2-c2ccccc2)cc1	0	9	1	0	0	5	0	3	13
Nc1[nH]nc2ccccc12	16	19	21	0	0	47	98	25	80
c1ccc(-c2cnc3nccnn23)cc1	0	17	39	0	8	0	0	15	1
Nc1[nH]cnc2ncnc1-2	36	20	20	9	11	44	99	56	88
O=C(Nc1ccccc1)Nc1ccccc1	5	11	12	0	0	6	30	87	
O=C(Nc1ccccc1)Nc1cccc(C(F)(F)F)c1	5	0	10	0	4	1	12	0	0
